From patent US9920383B2, “Active substances for increasing the stress defense in plants to abiotic stress, and methods of finding them” (Bayer Intellectual Property GMBH, priority 2005, dated 2018)

Legend:
Format in all cases: in vivo, maize cv. Lorenzo
[1] = system: Zm12587.1.S1.s_at: glycosyltransferase; experiment: Gene expression profiling (maize genome array), heat stress; conditions: vs unstressed solvent-dressed control
Method: (§1) Maize seeds cv. Lorenzo were dressed as described in example 1 with the compound VIII-3 (=4-cyclopropylaminocarbonyl-N-(2-methoxybenzoyl)benzenesulfonamide) or with solvent. The plants were raised for 10 days in a controlled-environment chamber (conditions: see example 1).
(§2) Thereafter, the plants were exposed to the following stress conditions: • (1) Heat stress: 6 h at 45° C. • (2) Drought stress: 7 days without irrigation, 24° C.
(§3) The control plants of the specific experimental group were kept under the standard conditions described in example 1 (temperature, irrigation).
(§4) After the stress treatment, the leaves of the stressed plants and of the unstressed control plants were harvested, shock-frozen in liquid nitrogen and stored at −80° C. until processed. All experiments were carried out in replications of in each case 2 pots.
(§5) The labeled RNA probes for the DNA chip hybridization were prepared as described in the protocols (Expression Analysis. Technical Manual) from Affymetrix (Affymetrix Inc., 3380 Central Expressway, Santa Clara, Calif., USA). First, total RNA was isolated from in each case 500 mg of the harvested leaves. In each case 10 μg of total RNA were used for the cDNA first- and second-strand synthesis. The cDNA was amplified with T7 polymerase and simultaneously labeled with biotin-UTP. In each case 20 μg of this biotinylated […] were employed for the hybridization of the maize genome array from Affymetrix. This DNA microarray contains DNA sequences whose totality represents 13339 genes. Thereafter, the DNA microarrays were washed in the Affymetrix Fluidics Station, stained with streptavidin/phycoerythrin (Molecular Probes, P/N S-866) and scanned with the appropriate Agilent Laser Scanner (Agilent Gene Array Scanner). The fluorescence data obtained were analyzed using Affymetrix's Microarray Suite 5 software. After the quality assurance had been performed, all DNA chip analyses were stored in a database. To determine relevant expression values (induction factors, repression factors), the absolute expression values of the genes from the respective stress experiments were compared with the values of the respective control experiments (i.e. without abiotic stress and solvent-dressing only), based on the scoring function predetermined by the Affymetrix software. The resulting 4 expression values per gene were averaged by calculating the median value. These median values are shown in the results tables as induction factors. Similarity comparisons of expression profiles of various experiments and cluster analyses were carried out using the “genedata expressionist” software from Genedata (Genedata, Maulbeerstr. 46, CH-4016 Basel, Switzerland).
(§6) The analysis of the expression profiles specifically searched for genes which are induced by the test substances only in conjunction with abiotic stress, but not by the substances or by stress alone. Such genes can be considered as indicators for additional anti-stress effects of the substances which exceed the known safener effect. The induction patterns of the indicator genes described permit the targeted finding of active substances for increasing the abiotic stress tolerance in crop plants. • a) Under heat stress conditions, i.e. the tested maize plants (dressed with 2 mg a.i. 4-cyclopropylaminocarbonyl-N-(2-methoxybenzoyl)benzenesulfonamide/g seeds) were exposed to a temperature of 45° C. for 6 hours 7 days after germination.
(§7) • Condition A: heat stress (6 hours, 45° C.) • Condition B: Seeds dressed with 4-cyclopropylaminocarbonyl-N-(2-methoxybenzoyl)benzenesulfonamide (VIII-3)/NO heat stress • Condition C: Seeds dressed with 4-cyclopropylaminocarbonyl-N-(2-methoxybenzoyl)benzenesulfonamide (VIII-3)+heat stress (6 hours, 45° C.).

[2] = system: Zm.3040.1.S1_at uricase II (E.C.1.7.3.3); nodule specific uricase; experiment: as above; conditions: vs unstressed solvent-dressed control
Method: as §1, §2, §3, §4, §5, §6, §7

[3] = system: Zm.4274.1.S1_at: cytochrome P450; experiment: as above; conditions: vs unstressed solvent-dressed control
Method: as §1, §2, §3, §4, §5, §6, §7

maize plants [4] = experiment: Drought stress experiment with maize plants, seed dressing with active substance; conditions: for Relative dry matter [%]: relative to control group 2 (−S/−D)
Method: Maize seeds cv. Lorenzo were dressed with the compound 4-cyclopropylamino-carbonyl-N-(2-methoxybenzoyl)benzenesulfonamide (=VIII-3). To this end, 10 g of seeds were incubated with 20 mg of active substance dissolved in 2 ml of methylene chloride, with gentle shaking, until the solvent had evaporated (approx. 30 minutes). The seeds of the control group were only dressed with solvent. Thereafter, the treated seeds were placed into pots with compost (diameter 10 cm, in each case 10 seeds per pot), and the maize seedlings were raised for 10 days in a controlled-environment chamber under defined light, moisture and temperature conditions [white light, long day (16 hours light, 8 hours dark), 70% atmospheric humidity, 24° C.]. In each case 2×10 pots were used for the control groups and for the drought stress experiment. While the plants were raised, they were watered from below for 20 minutes every 2 days by raising the water level in a tray. 10 days after the seeds had germinated, the maize plants were exposed to the drought stress. To this end, the plants of control group 1 (without dressing with active substance) and of the test group (with dressing with active substance) were only irrigated every 7 days as described above. In the case of the plants of control group 2 (without dressing with active substance) and of the test group 2 (with dressing with active substance), the normal irrigation regime was reclaimed. After 3 weeks of drought stress conditions, the experiment was evaluated as follows. The aerial plant parts were cut off and dried overnight at 50° C. On the next day, the foliar biomass was determined in [g] (dry matter) per pot.
The data were averaged over the in each case 10 pots of the plant group. The numerical values shown in table 1 are relative values in [%] relative to the data obtained with the control group 2 (without dressing with active substance, normal irrigation regime).

maize plants [5] = experiment: Chill-stress experiment (greenhouse) with maize plants, pre-emergence treatment; conditions: for Number of damaged plants (chloroses): chill stress 6 h at −2° C, 20 plants per group
Source text: Maize seeds cv. Lorenzo were sown into 10-cm-pots into compost at a rate of 10 seeds per pot. All experimental groups consisted of in each case 4 pots. The sown seeds of test groups 1 and 2 were sprayed pre-emergence with 50 and 100 [g a.i./ha], respectively, of the compound 4-cyclopropylaminocarbonyl-N-(2-methoxybenzoyl)benzenesulfonamide (=VIII-3). The seeds of the control group remained untreated. The plants were raised under controlled conditions in a controlled-environment chamber [white light (long day: 16 h light, 8 h dark), 22° C. day-time temperature, 14° C. night-time temperature, 60% atmospheric humidity].
After germination, when the plants had attained a length of approx. 1 cm, 2 pots from each group were incubated for 6 h in a different controlled-environment chamber under chill-stress conditions at −2° C. Thereafter, these plants were returned to the others in the first controlled-environment chamber.
To evaluate the experiment quantitatively, the plants with chloroses of the leaf tips were counted. The total number of the plants per test group and cold stress treatment was 20, provided over 2 pots in each case.

[6] = seeds dressed with VIII-3 (2 mg a.i./g seeds), NO heat stress
[7] = seeds dressed with VIII-3 + heat stress (6 hours, 45° C.)

SMILES: COc1ccccc1C(=O)NS(=O)(=O)c1ccc(C(=O)NC2CC2)cc1 [VIII-3, 4-cyclopropylaminocarbonyl-N-(2-methoxybenzoyl)benzenesulfonamide]
- induction factor Zm12587.1.S1.s_at, Condition B [1, 6]: 1.45
- induction factor Zm12587.1.S1.s_at, Condition C [1, 7]: 2.33
- induction factor Zm.3040.1.S1_at, Condition B [2, 6]: 1.33
- induction factor Zm.3040.1.S1_at, Condition C [2, 7]: 2.48
- induction factor Zm.4274.1.S1_at, Condition B [3, 6]: 1.22
- induction factor Zm.4274.1.S1_at, Condition C [3, 7]: 1.93
- Relative dry matter [%] (maize plants [4]; +S/+D: seeds dressed (20 mg per 10 g seeds), 3 weeks drought stress): 80%
- Relative dry matter [%] (maize plants [4]; +S/−D: seeds dressed, normal irrigation (no drought stress)): 100%
- average foliar biomass (dry matter) over the undressed control plant (maize plants [4]; under drought stress (control group 1 vs test group 1)): significantly increased
- Number of damaged plants (chloroses) (maize plants [5]; 50 g a.i./ha pre-emergence): 1
- Number of damaged plants (chloroses) (maize plants [5]; 100 g a.i./ha pre-emergence): 0
- occurrence of chill stress damage symptoms (maize plants [5]; at the higher dosage rate): completely prevents
- chloroses at the leaf tips after chill stress (maize plants [5]; plants treated with the active substance, 24 hours after chill stress): either absent or only very weakly pronounced
- plants showing damage symptoms (maize plants [5]; test groups kept exclusively under standard conditions without chill stress): None
- damage symptoms which are the result of chill stress (maize plants [5]; treatment with the active substance (lower dosage rate)): markedly reduce
